Laboratory results reported in the NIST ThermoML archive (doi:10.1016/j.jct.2010.08.010).
Numbers after ± are expanded uncertainties.

Conditions: Liquid, Buoyancy - hydrostatic balance with magnetic suspension - one sinker

Cc1ccccc1 [toluene]
mass density (333.15 K, 9960.3 kPa): 838.314 ± 0.2 kg/m3 | mass density (333.15 K, 12120 kPa): 840.218 ± 0.2 kg/m3 | mass density (333.15 K, 14111 kPa): 841.938 ± 0.2 kg/m3 | mass density (333.15 K, 15857 kPa): 843.417 ± 0.2 kg/m3 | mass density (333.15 K, 18129 kPa): 845.312 ± 0.2 kg/m3 | mass density (333.15 K, 19860 kPa): 846.724 ± 0.2 kg/m3 | mass density (333.15 K, 22144 kPa): 848.558 ± 0.2 kg/m3 | mass density (333.15 K, 24050 kPa): 850.059 ± 0.2 kg/m3 | mass density (333.15 K, 25886 kPa): 851.479 ± 0.2 kg/m3 | mass density (333.15 K, 28037 kPa): 853.128 ± 0.2 kg/m3 | mass density (333.15 K, 29895 kPa): 854.529 ± 0.2 kg/m3 | mass density (353.15 K, 100.22 kPa): 809.674 ± 0.19 kg/m3 | mass density (353.15 K, 1169.9 kPa): 810.881 ± 0.19 kg/m3 | mass density (353.15 K, 2003.6 kPa): 811.814 ± 0.19 kg/m3 | mass density (353.15 K, 4142.5 kPa): 814.153 ± 0.19 kg/m3 | mass density (353.15 K, 6005.5 kPa): 816.142 ± 0.19 kg/m3 | mass density (353.15 K, 8141.3 kPa): 818.365 ± 0.19 kg/m3 | mass density (353.15 K, 10004 kPa): 820.255 ± 0.19 kg/m3 | mass density (353.15 K, 12008 kPa): 822.24 ± 0.19 kg/m3 | mass density (353.15 K, 14198 kPa): 824.368 ± 0.19 kg/m3 | mass density (353.15 K, 16142 kPa): 826.212 ± 0.19 kg/m3 | mass density (353.15 K, 18101 kPa): 828.027 ± 0.19 kg/m3 | mass density (353.15 K, 19917 kPa): 829.683 ± 0.19 kg/m3 | mass density (353.15 K, 22138 kPa): 831.662 ± 0.19 kg/m3 | mass density (353.15 K, 24034 kPa): 833.323 ± 0.19 kg/m3 | mass density (353.15 K, 26059 kPa): 835.06 ± 0.2 kg/m3 | mass density (353.15 K, 28105 kPa): 836.785 ± 0.2 kg/m3 | mass density (353.15 K, 29954 kPa): 838.316 ± 0.2 kg/m3 | mass density (373.15 K, 1259.9 kPa): 791.299 ± 0.18 kg/m3 | mass density (373.15 K, 2065.8 kPa): 792.34 ± 0.18 kg/m3 | mass density (373.15 K, 3870.7 kPa): 794.611 ± 0.18 kg/m3 | mass density (373.15 K, 6198.3 kPa): 797.456 ± 0.19 kg/m3 | mass density (373.15 K, 8095.9 kPa): 799.709 ± 0.19 kg/m3 | mass density (373.15 K, 9917.3 kPa): 801.809 ± 0.19 kg/m3 | mass density (373.15 K, 12114 kPa): 804.274 ± 0.19 kg/m3 | mass density (373.15 K, 13934 kPa): 806.263 ± 0.19 kg/m3 | mass density (373.15 K, 16020 kPa): 808.493 ± 0.19 kg/m3 | mass density (373.15 K, 18023 kPa): 810.573 ± 0.19 kg/m3 | mass density (373.15 K, 19927 kPa): 812.508 ± 0.19 kg/m3 | mass density (373.15 K, 22108 kPa): 814.677 ± 0.19 kg/m3 | mass density (373.15 K, 23970 kPa): 816.486 ± 0.19 kg/m3 | mass density (373.15 K, 25950 kPa): 818.372 ± 0.19 kg/m3 | mass density (373.15 K, 27874 kPa): 820.167 ± 0.19 kg/m3 | mass density (373.15 K, 29907 kPa): 822.029 ± 0.19 kg/m3 | mass density (393.15 K, 1097.4 kPa): 770.672 ± 0.18 kg/m3 | mass density (393.15 K, 1998.7 kPa): 772.03 ± 0.18 kg/m3 | mass density (393.15 K, 4084.6 kPa): 775.078 ± 0.18 kg/m3 | mass density (393.15 K, 6214.8 kPa): 778.084 ± 0.18 kg/m3 | mass density (393.15 K, 8059.3 kPa): 780.589 ± 0.18 kg/m3 | mass density (393.15 K, 9988.4 kPa): 783.137 ± 0.18 kg/m3 | mass density (393.15 K, 12134 kPa): 785.871 ± 0.18 kg/m3 | mass density (393.15 K, 14051 kPa): 788.257 ± 0.18 kg/m3 | mass density (393.15 K, 16078 kPa): 790.683 ± 0.18 kg/m3 | mass density (393.15 K, 18012 kPa): 792.945 ± 0.18 kg/m3 | mass density (393.15 K, 19811 kPa): 794.994 ± 0.18 kg/m3 | mass density (393.15 K, 22110 kPa): 797.55 ± 0.19 kg/m3 | mass density (393.15 K, 23923 kPa): 799.514 ± 0.19 kg/m3 | mass density (393.15 K, 25870 kPa): 801.576 ± 0.19 kg/m3 | mass density (393.15 K, 27974 kPa): 803.747 ± 0.19 kg/m3 | mass density (393.15 K, 29891 kPa): 805.692 ± 0.19 kg/m3 | mass density (413.15 K, 1099.1 kPa): 749.389 ± 0.18 kg/m3 | mass density (413.15 K, 1960.8 kPa): 750.924 ± 0.18 kg/m3 | mass density (413.15 K, 4038.3 kPa): 754.503 ± 0.18 kg/m3 | mass density (413.15 K, 6026.6 kPa): 757.773 ± 0.18 kg/m3 | mass density (413.15 K, 8189.1 kPa): 761.18 ± 0.18 kg/m3 | mass density (413.15 K, 9852 kPa): 763.702 ± 0.18 kg/m3 | mass density (413.15 K, 12117 kPa): 767.016 ± 0.18 kg/m3 | mass density (413.15 K, 14168 kPa): 769.904 ± 0.18 kg/m3 | mass density (413.15 K, 16108 kPa): 772.544 ± 0.18 kg/m3 | mass density (413.15 K, 18095 kPa): 775.165 ± 0.18 kg/m3 | mass density (413.15 K, 20104 kPa): 777.733 ± 0.18 kg/m3 | mass density (413.15 K, 22152 kPa): 780.275 ± 0.18 kg/m3 | mass density (413.15 K, 24009 kPa): 782.518 ± 0.18 kg/m3 | mass density (413.15 K, 25996 kPa): 784.857 ± 0.18 kg/m3 | mass density (413.15 K, 27793 kPa): 786.922 ± 0.18 kg/m3 | mass density (413.15 K, 29815 kPa): 789.193 ± 0.18 kg/m3 | mass density (433.15 K, 1101.8 kPa): 726.984 ± 0.17 kg/m3 | mass density (433.15 K, 1976.7 kPa): 728.858 ± 0.17 kg/m3 | mass density (433.15 K, 4084.4 kPa): 733.177 ± 0.17 kg/m3 | mass density (433.15 K, 6154.5 kPa): 737.18 ± 0.17 kg/m3 | mass density (433.15 K, 8078.7 kPa): 740.731 ± 0.17 kg/m3 | mass density (433.15 K, 9952.6 kPa): 744.032 ± 0.17 kg/m3 | mass density (433.15 K, 11980 kPa): 747.451 ± 0.17 kg/m3 | mass density (433.15 K, 13969 kPa): 750.677 ± 0.18 kg/m3 | mass density (433.15 K, 16091 kPa): 753.964 ± 0.18 kg/m3 | mass density (433.15 K, 17961 kPa): 756.765 ± 0.18 kg/m3 | mass density (433.15 K, 19890 kPa): 759.561 ± 0.18 kg/m3 | mass density (433.15 K, 22082 kPa): 762.624 ± 0.18 kg/m3 | mass density (433.15 K, 24002 kPa): 765.215 ± 0.18 kg/m3 | mass density (433.15 K, 26049 kPa): 767.899 ± 0.18 kg/m3 | mass density (433.15 K, 27836 kPa): 770.185 ± 0.18 kg/m3 | mass density (433.15 K, 29993 kPa): 772.844 ± 0.18 kg/m3 | mass density (453.15 K, 1107.5 kPa): 703.102 ± 0.17 kg/m3 | mass density (453.15 K, 2037.8 kPa): 705.548 ± 0.17 kg/m3 | mass density (453.15 K, 4185.3 kPa): 710.874 ± 0.17 kg/m3 | mass density (453.15 K, 6060.4 kPa): 715.218 ± 0.17 kg/m3 | mass density (453.15 K, 8005.2 kPa): 719.474 ± 0.17 kg/m3 | mass density (453.15 K, 9870.3 kPa): 723.328 ± 0.17 kg/m3 | mass density (453.15 K, 12115 kPa): 727.721 ± 0.17 kg/m3 | mass density (453.15 K, 14139 kPa): 731.482 ± 0.17 kg/m3 | mass density (453.15 K, 16027 kPa): 734.835 ± 0.17 kg/m3 | mass density (453.15 K, 17928 kPa): 738.09 ± 0.17 kg/m3 | mass density (453.15 K, 20153 kPa): 741.727 ± 0.17 kg/m3 | mass density (453.15 K, 22071 kPa): 744.756 ± 0.17 kg/m3 | mass density (453.15 K, 24057 kPa): 747.767 ± 0.17 kg/m3 | mass density (453.15 K, 26029 kPa): 750.661 ± 0.17 kg/m3 | mass density (453.15 K, 27966 kPa): 753.404 ± 0.18 kg/m3 | mass density (453.15 K, 29817 kPa): 755.955 ± 0.18 kg/m3 | mass density (473.15 K, 1104.4 kPa): 677.2 ± 0.16 kg/m3 | mass density (473.15 K, 2031.3 kPa): 680.289 ± 0.16 kg/m3 | mass density (473.15 K, 4033.8 kPa): 686.456 ± 0.16 kg/m3 | mass density (473.15 K, 6024.4 kPa): 692.111 ± 0.16 kg/m3 | mass density (473.15 K, 7930.8 kPa): 697.122 ± 0.16 kg/m3 | mass density (473.15 K, 10107 kPa): 702.459 ± 0.16 kg/m3 | mass density (473.15 K, 11931 kPa): 706.639 ± 0.17 kg/m3 | mass density (473.15 K, 13959 kPa): 711.045 ± 0.17 kg/m3 | mass density (473.15 K, 16004 kPa): 715.254 ± 0.17 kg/m3 | mass density (473.15 K, 17878 kPa): 718.918 ± 0.17 kg/m3 | mass density (473.15 K, 19844 kPa): 722.599 ± 0.17 kg/m3 | mass density (473.15 K, 22088 kPa): 726.587 ± 0.17 kg/m3 | mass density (473.15 K, 24074 kPa): 729.989 ± 0.17 kg/m3 | mass density (473.15 K, 26038 kPa): 733.203 ± 0.17 kg/m3 | mass density (473.15 K, 27840 kPa): 736.071 ± 0.17 kg/m3 | mass density (473.15 K, 29806 kPa): 739.091 ± 0.17 kg/m3
